# Patent US7427626B2, “2-Anilino-4-(imidazol-5-yl)-pyrimidine derivatives and their use as cdk (cdk2) inhibitors” (AstraZeneca AB, priority 2003, dated 2008)
# Target: T1, CDK2/Cyclin E (Homo sapiens, UniProt P24941)
# T1 construct: The open reading frames of CDK2 and Cyclin E were isolated; made in house; host or cells: Spodoptera frugiperda SF21 insect cells with baculovirus co-infection (CDK2 and cyclin E); E. coli BL21 (DE3) pLysS (GST-Rb substrate)
# Assay: in vitro kinase assay, Scintillation Proximity Assay, incorporation of [γ-33-P]-ATP into GST-Rb
# Type: biochemical
# Conditions: CDK2/Cyclin E partially-purified enzyme, GST-Rb substrate, 0.2 μM ATP, 60 minutes at room temperature
# Description: The compounds were tested in an in vitro kinase assay in 96 well format using Scintillation Proximity Assay (SPA—obtained from Amersham) for measuring incorporation of [γ-33-P]-Adenosine Triphosphate into a test substrate (GST-Retinoblastoma protein; GST-Rb). In each well was placed the compound to be tested (diluted in DMSO and water to correct concentrations) and in control wells either roscovitine as an inhibitor control or DMSO as a […] control.
# Approximately 0.2 μl of CDK2/Cyclin E partially-purified enzyme (amount dependent on enzyme activity) diluted in 25 μl incubation buffer was added to each well then 20 μl of GST-Rb/ATP/ATP33 mixture (containing 0.5 μg GST-Rb and 0.2 μM ATP and 0.14 μCi [γ-33-P]-Adenosine Triphosphate in incubation buffer), and the resulting mixture shaken gently, then incubated at room temperature for 60 minutes.
# To each well was then added 150 μL stop solution containing (0.8 mg/well of Protein A-PVT SPA bead (Amersham)), 20 pM/well of Anti-Glutathione Transferase, Rabbit IgG (obtained from Molecular Probes), 61 mM EDTA and 50 mM HEPES pH 7.5 containing 0.05% sodium azide.
# The plates were sealed with Topseal-S plate sealers, left for two hours then spun at 2500 rpm, 1124 xg., for 5 minutes. The plates were read on a Topcount for 30 seconds per well. […]
# E. coli paste was resuspended in 10 ml/g of NETN buffer (50 mM Tris pH 7.5, 120 mM NaCl, 1 mM EDTA, 0.5% v/v NP-40, 1 mM PMSF, 1 ug/ml leupeptin, 1 μg/ml aprotinin and 1 ug/ml pepstatin) and sonicated for 2×45 seconds per 100 ml homogenate. […] The final product was analysed by Sodium Dodeca Sulfate (SDS) PAGE (Polyacrylamide gel) using 8-16% Tris-Glycine gels (Novex, San Diego, USA).
# The open reading frames of CDK2 and Cyclin E were isolated by reverse transcriptase-PCR using HeLa cell and activated T cell mRNA as a template and cloned into the insect expression vector pVL1393 (obtained from Invitrogen 1995 catalogue number: V1392-20). […]
row,IC50 [nM],SMILES
1,64,"CC(C)n1c(-c2ccnc(Nc3ccccc3)n2)cnc1C(=O)CCc1ccccc1 [Example 9, 2-Anilino-4-[2-(3-phenylpropionyl)-1-isopropylimidazol-5-yl]pyrimidine]"
2,65,"CC(C)n1c(-c2ccnc(Nc3ccccc3)n2)cnc1C(=O)c1ccccc1 [Example 6, 2-Anilino4(2-benzoyl-1-isopropylimidazol-5-yl)pyrimidine]"
3,4,"CC(C)n1c(-c2ccnc(Nc3ccccc3)n2)cnc1C(=O)c1ccncc1 [Example 8, 2-Anilino-4-[2-(pyridin-4-ylcarbonyl)-1-isopropylimidazol-5-yl]pyrimidine]"
